For this test, the system named is CEM cells HIV-1 protection, formazan growth assay. Kind of test: NCI AIDS Antiviral Assay. As to conditions: for IC50: measured here: growth of uninfected CEM cells. The method in brief:
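Steps: treat uninfected and HIV-1-infected human CEM cells at five drug levels; quantify growth by soluble formazan; retest any compound reaching 50% protection; classify actives from the retest.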

The structures appear in SMILES notation. Activity calls are given as the source filed them.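 The calls were made as follows: active = compounds giving half or more protection of infected cells from virus-caused growth loss, again on retest; inactive = the rest.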 Where a SMILES comes first, the peptide text is derived from it.

For `COC(=O)C1(Cc2ccc(C)cc2)Cc2c(C)cccc2C1=O` (stereo unspecified), the EC50 was greater than 200 µM and the IC50 was found to be 8.91 µM. The corresponding values for `COC(=S)SSC(=S)NCCN(CCNC(=S)SSC(=S)OC)C(=S)SSC(=S)OC` are greater than 257 µM and 209 µM. The corresponding values for `Oc1[nH]c(=S)[nH]c1/C=C1/C(c2ccccc2)=Nc2ccccc21` are greater than 200 µM and 9.33 µM. The corresponding values for `ClC(Cl)=CC(Cl)(Cl)C(Cl)(Cl)C(Cl)(Cl)Cl` are greater than 200 µM and 5.5 µM. As for `COC(=O)CCC=C(c1cc(Cl)c(OC)c(C(=O)OC)c1)c1cc(Cl)c(OC)c(C(=O)OC)c1`, the EC50 was greater than 200 µM and the IC50 turned out to be 44.7 µM. In the case of `CCC1NC(N=Nc2ccc([N+](=O)[O-])cc2)(P(=O)(OC(C)C)OC(C)C)OC1=O` (stereo unspecified), the EC50 was greater than 219 µM and the IC50 was greater than 219 µM. Turning to `c1ccc(C2(c3cc4ccccc4[nH]3)OCCO2)nc1`, the EC50 was greater than 200 µM and the concentration for half-maximal inhibition (IC50) was greater than 200 µM. On to `CC1=C(C(=O)O)N2C(=O)[C@@H](NC(=O)C(c3ccc(O)cc3)N3CSC(=S)N(C(C)C)C3)C2SC1` (stereo partly specified), for which the EC50 is greater than 479 µM and the IC50 was found to be 269 µM. The corresponding values for `CCN(CC)CCCN1CC(=O)N2CCCCN2C(=O)C1` are greater than 200 µM and greater than 200 µM.

As for `COc1cc(/C=C2\SC(=S)N(/C=C(/C#N)C(=O)c3ccc4ccccc4c3)C2=O)cc(OC)c1OC`, the EC50 is greater than 200 µM and the IC50 stood at 14.8 µM. The corresponding values for `CC1(CO)CC(O)C(n2cnc3c(N)ncnc32)O1` (stereo unspecified) are greater than 5.13 µM and greater than 5.13 µM. The corresponding values for `CC(C)C1CNC2N1C(=O)C2(C)OCc1ccccc1` (stereo unspecified) are greater than 251 µM and 155 µM.

`C=C1C(=O)OC2C1CC[C@H](C)C1(O)C(O)CC(=O)[C@@]21C` (stereo partly specified): the result was inactive.

Regarding `Cc1ccnc(NC(=O)Nc2ccc(F)c([N+](=O)[O-])c2)c1`, the EC50 is greater than 200 µM and the IC50 is greater than 200 µM.

In the case of `Cc1cn(C2C=CC(O)CC2)c(=O)[nH]c1=O` (stereo unspecified), the EC50 was greater than 589 µM and the 50% inhibitory concentration (IC50) is greater than 589 µM. On to `CC(=O)C12C[C@](C#N)(N3CCCCCC3)C1C=Cc1ccccc12` (stereo partly specified), for which the EC50 was greater than 200 µM and the IC50 was greater than 200 µM.

Turning to `COc1cc2c(cc1OC)C(C1CC1)ON(C)CC2` (stereo unspecified), the EC50 is 158 µM and the IC50 is greater than 200 µM. For the compound `O=C1OC(C2Cc3ccc4c(c3C2=O)CCCC4)c2ccccc21` (stereo unspecified), the EC50 was greater than 200 µM and the IC50 is 33.9 µM.

Consider `CCOP(=O)(OCC)C(Nc1cccc(F)c1)c1ccc(N(C)C)cc1` (stereo unspecified), for which the EC50 is greater than 200 µM and the IC50 came to 97.7 µM. Regarding `COC(=O)CC1COC(C)(C)O1` (stereo unspecified), the result was inactive.

Take `O=c1[nH]cnc2c1nnn2CCCCCCCCCCCCn1nnc2c(=O)[nH]cnc21`: the EC50 is greater than 200 µM and the 50% inhibitory concentration (IC50) was 24 µM.

For `CC12CP(=O)(O)CC1C2(Cl)Cl` (stereo unspecified), the EC50 was greater than 200 µM and the IC50 is greater than 200 µM. Regarding `CC1=C(C(=O)NC2CCCCC2)CC(C(=O)NC2CCCCC2)=C(C)N1`, the EC50 was greater than 200 µM and the IC50 came to 72.4 µM. The corresponding values for `COc1cccc(CC2NCCc3c2[nH]c2ccccc32)c1` (stereo unspecified) are greater than 251 µM and 46.8 µM. `c1cc[c]([Sn]([S]c2cccc3cccnc23)([S]c2cccc3cccnc23)[c]2ccccc2)cc1`: the outcome was inactive.

Consider `O=C(NNc1ccnc2cc(Cl)ccc12)/C(=C/c1ccc2c(c1)OCO2)NC(=O)c1ccccc1`, for which the EC50 was greater than 100 µM and the 50% inhibitory concentration (IC50) worked out at 8.51 µM. For the compound `CCCC(C(=O)OC)C(=O)C(C)c1nc2n(c1O)C(=N)N=N2` (stereo unspecified), the EC50 was greater than 200 µM and the half-inhibitory concentration (IC50) was greater than 200 µM.

Regarding `O=C(Nn1c(-c2ccccc2)nc2ccccc2c1=O)c1ccccc1O`, the EC50 was greater than 200 µM and the concentration for half-maximal inhibition (IC50) was 17.4 µM.

Turning to `CSc1nc2c(c(=O)n1C)N=C(c1ccc([N+](=O)[O-])cc1)CC(c1ccccc1)N2` (stereo unspecified), the EC50 was greater than 200 µM and the 50% inhibitory concentration (IC50) was 155 µM. The corresponding values for `N#Cc1c2ccc([N+](=O)[O-])cc2c(=O)n2c1[nH]c1ccc(C(F)(F)F)cc12` are greater than 200 µM and 1.91 µM. The corresponding values for `O=C1CSc2cc([N+](=O)[O-])ccc2N1` are greater than 123 µM and greater than 123 µM.

As to `O=C(c1ccccc1)N1CN(C(=O)c2ccccc2)CN(C(=O)c2ccccc2)C1`, the EC50 was greater than 200 µM and the half-inhibitory concentration (IC50) was determined as 30.2 µM. The corresponding values for `C=CC1(c2ccc3ccccc3c2)OCC(CC)(CC)CO1` are greater than 200 µM and 79.4 µM. The corresponding values for `c1ccc([P+](Cc2ccco2)(c2ccccc2)c2ccccc2)cc1` are greater than 200 µM and 3.39 µM. `CCN(CC)c1ccc(N=Cc2cc(=O)n(C)c3ccccc23)cc1`: the EC50 was greater than 200 µM and the IC50 came to 3.72 µM.

Regarding `CCOC(=O)/C(=C\c1ccc(F)cc1)P(=O)(OCC)OCC`, the EC50 was greater than 759 µM and the IC50 amounted to 15.1 µM.

For `Cc1cc(=O)[nH]c(CNC(=O)c2cccc(C(=O)NCc3cc(=O)[nH]c(C)n3)c2)n1`, the EC50 was greater than 617 µM and the IC50 was greater than 617 µM. Consider `Cn1cc(NC(=O)c2cc(NC(=O)[C@H]3CCC(N)=N3)c[nH]2)cc1C(=O)NCCC(=N)N`, for which the result was active. For the compound `O=C1C(=Cc2cccs2)C(=O)N(CCc2ccccc2)S(=O)(=O)N1CCc1ccccc1`, the EC50 was greater than 8.13 µM and the IC50 was greater than 8.13 µM. Regarding `O=C1OCC(Cc2ccc(O)c(O)c2)[C@H]1Cc1ccc(O)c(O)c1` (stereo partly specified), the EC50 was greater than 200 µM and the IC50 was found to be 19.1 µM. The corresponding values for `CCN(CC)CC(=O)Nc1ccc(C)c(Cl)c1` are greater than 200 µM and 112 µM.

For `CNC(=O)CCCC=C(c1cc(Cl)c(OC)c(C(=O)NC)c1)c1cc(Cl)c(OC)c(C(=O)NC)c1`, the EC50 was greater than 200 µM and the IC50 was 38.9 µM. The corresponding values for `O=C(OCc1ccccc1)C1(N2CN(C3(C(=O)OCc4ccccc4)CCCC3)CN(C3(C(=O)OCc4ccccc4)CCCC3)C2)CCCC1` are greater than 200 µM and 35.5 µM. In the case of `Nc1nccc2c1ncn2C1C=C(CO)C(O)C1O` (stereo unspecified), the EC50 is greater than 832 µM and the IC50 came out at 0.324 µM. The corresponding values for `O=C1NC(=O)C(CCSSCCC2NC(=O)NC2=O)N1` (stereo unspecified) are greater than 200 µM and greater than 200 µM. The corresponding values for `CCOC(=O)C1C(c2ccc(O)c(OC)c2)c2c([nH][nH]c2=O)CC1(C)O` (stereo unspecified) are greater than 200 µM and greater than 200 µM. The corresponding values for `CN(C)c1nc(Oc2nc(N(C)C)nc(N(C)C)n2)nc(N(C)C)n1` are greater than 724 µM and 17.4 µM. Consider `COc1ccc(NC2CC(C)N(C(=O)c3ccccc3)O2)cc1` (stereo unspecified), for which the EC50 is greater than 200 µM and the IC50 worked out at 95.5 µM. The corresponding values for `O=[N+]([O-])c1ccc(-n2nc3ccc4c(no[n+]4[O-])c3n2)cc1` are greater than 200 µM and 57.5 µM. The corresponding values for `COc1ccc(OC2(c3cc(OC)ccc3OC)OC(=O)c3ccccc32)cc1` (stereo unspecified) are greater than 13.2 µM and greater than 13.2 µM. The corresponding values for `Cc1ccc(S(=O)(=O)N(C)C)cc1NC1=NCCO1` are greater than 200 µM and greater than 200 µM.

On to `OC(c1cc2ccccc2[nH]1)C1(c2cccnc2)SCCCS1` (stereo unspecified), for which the EC50 was greater than 200 µM and the IC50 is 57.5 µM.

As for `NC(=S)/N=C(/c1nc2ccc(Cl)cc2[nH]c1=O)C(O)c1ccccc1Cl` (stereo unspecified), the EC50 was greater than 617 µM and the half-inhibitory concentration (IC50) worked out at 589 µM. In the case of `COc1ccc(NC(=O)Oc2ccc3c(C)cc(=O)oc3c2)c(OC)c1`, the EC50 was greater than 52.5 µM and the half-inhibitory concentration (IC50) is greater than 52.5 µM. Consider `CCOP(=S)(NN=C1CCC(C(C)(C)C)CC1)OCC` (stereo unspecified), for which the EC50 is greater than 200 µM and the half-inhibitory concentration (IC50) was determined as 89.1 µM. Consider `CCCCCC12OCC(C)(C)N1O2` (stereo unspecified), for which the EC50 is greater than 200 µM and the IC50 turned out to be 126 µM. The corresponding values for `O=C(O)C1[S][Bi]([S]C(C(=O)O)C([S][Bi]2[S]C(C(=O)O)C(C(=O)O)[S]2)C(=O)O)[S]C1C(=O)O` (stereo unspecified) are greater than 1.32 µM and greater than 1.32 µM.

As for `O=[N+]([O-])c1cccc2nc3ccccc3c(NCCc3cccc[n+]3[O-])c12`, the EC50 is greater than 200 µM and the IC50 was determined as 0.0631 µM. Consider `[Cl][Sn]([Cl])([c]1ccccc1)[c]1ccccc1`, for which the result was inactive.

For the compound `O=c1[nH]nc(Cc2ccccc2)n1-n1cnnc1`, the EC50 was greater than 200 µM and the half-maximal inhibitory concentration (IC50) is greater than 200 µM. For the compound `N#C/C(=C\c1ccccc1)c1ccccc1F`, the EC50 was greater than 200 µM and the IC50 is 37.2 µM.

For the compound `COc1cc(COC(=O)NC(Cc2cccs2)C(=O)O)c([N+](=O)[O-])cc1OC` (stereo unspecified), the EC50 is greater than 603 µM and the IC50 is 427 µM. In the case of `N#C/C(C(=O)Nc1ccccc1)=C(/N)N1CCCC1`, the EC50 was greater than 200 µM and the 50% inhibitory concentration (IC50) was 174 µM. The corresponding values for `Cc1cccc(C)c1NC(=O)CCCC(=O)C1CC(=O)CCC1=O` (stereo unspecified) are greater than 550 µM and greater than 550 µM. The corresponding values for `CC(C)(CCC(C)(C)N1OC1c1ccccc1)N1OC1c1ccccc1` (stereo unspecified) are greater than 200 µM and 19.1 µM.

As for `COCc1nc(C#N)c(N)o1`, the EC50 was greater than 200 µM and the concentration for half-maximal inhibition (IC50) was greater than 200 µM. For the compound `CC(C)CC(NC(=O)C(NC(=O)C(CO)NC(=O)C(C)NC(=O)C(CCCN=C(N)N)NC(=O)C(C)NC(=O)CN)C(C)C)C(=O)NC(CO)C(N)=O` (stereo unspecified) (H-GARASVLS-NH2; configuration not given here), the result was inactive.

As to `CC1(C)OOC(O)C=C1c1ccccc1` (stereo unspecified), the EC50 was greater than 126 µM and the half-inhibitory concentration (IC50) is greater than 126 µM.

As to `O=[N+]([O-])c1ccc(-c2ccc(-c3csc(Nc4ccccc4)n3)o2)cc1`, the EC50 is greater than 37.2 µM and the IC50 was 6.76 µM. As to `N.N.N.N.O=C([O-])C(=O)O.O=C([O-])C(=O)[O-].[Co+3]`, the result was inactive. For `CCOC(=O)Cc1c[nH]c2ccc(N(CCO)CCO)cc12`, the EC50 was greater than 200 µM. `O=C1c2ccccc2S(=O)(=O)c2c1cccc2[N+](=O)[O-]`: the EC50 is greater than 200 µM and the IC50 came to 0.851 µM.

The values are drawn from PubChem BioAssay AID179 (DTP/NCI, 2004).
